Test results published in the supplement of paper PMC5762512.

Experiments:
Assay in all cases: IC50 cell viability (Alamar Blue, 96 h)
[1] = system: HS-27
Procedure: (§1)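 Cells in log-phase growth were seeded in 96-well plates and treated with drug for 96 h at 37°C using 8-point serial dilutions from 0.0025 to 10 µM. Viability was read by Alamar Blue fluorescence after 6 h and normalised to positive and vehicle (DMSO) controls. IC50 values were fitted in ActivityBase; the value given is the mean of two independent experiments.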

[2] = system: PER-891
Procedure: as §1

[3] = system: 8645
Procedure: as §1

[4] = system: A549
Procedure: as §1

[5] = system: PER-403
Procedure: as §1

[6] = system: 10326
Procedure: as §1

[7] = system: TY82
Procedure: as §1

[8] = system: HCC2429
Procedure: as §1

[9] = system: WI-38
Procedure: as §1

[10] = system: TC797
Procedure: as §1

[11] = system: P896-CL
Procedure: as §1

[12] = system: PER-712
Procedure: as §1

[13] = system: RPMI2650
Procedure: as §1

[14] = system: PER-624
Procedure: as §1

[15] = system: PER-535
Procedure: as §1

[16] = system: PER-704
Procedure: as §1

[17] = system: 14169
Procedure: as §1

[18] = system: CAKI-1
Procedure: as §1

[19] = system: PER-536
Procedure: as §1

[20] = system: 11060
Procedure: as §1

Row | Compound | IC50 cell viability [4] | IC50 cell viability [8] | IC50 cell viability [1] | IC50 cell viability [2] | IC50 cell viability [3] | IC50 cell viability [5] | IC50 cell viability [6] | IC50 cell viability [7] | IC50 cell viability [9] | IC50 cell viability [10] | IC50 cell viability [11] | IC50 cell viability [12] | IC50 cell viability [13] | IC50 cell viability [14] | IC50 cell viability [15] | IC50 cell viability [16] | IC50 cell viability [17] | IC50 cell viability [18] | IC50 cell viability [19] | IC50 cell viability [20]
1 | CC(=O)O[C@@]12CO[C@@H]1C[C@H](O)[C@@]1(C)C(=O)[C@H](O)C3=C(C)[C@@H](OC(=O)[C@H](O)[C@@H](NC(=O)OC(C)(C)C)c4ccccc4)C[C@@](O)([C@@H](OC(=O)c4ccccc4)[C@H]21)C3(C)C [Docetaxel] | < 2.5 nM | < 2.5 nM | < 2.5 nM | > 10000 nM | < 2.5 nM | < 2.5 nM | < 2.5 nM | 9.64 nM | 2.82 nM | 3.88 nM | 3.08 nM | 3.2 nM | > 10000 nM | < 2.5 nM | 6.25 nM | 4.11 nM | < 2.5 nM | 5000 nM | 16.4 nM | < 2.5 nM
2 | CCN(CCCOc1ccc2c(Nc3cc(CC(=O)Nc4cccc(F)c4)[nH]n3)ncnc2c1)CCOP(=O)(O)O [Barasertib] | 203 nM | 20.9 nM | 1900 nM | > 10000 nM | 986 nM | 19.4 nM | 11.7 nM | > 10000 nM | 6910 nM | > 10000 nM | 5010 nM | > 10000 nM | > 10000 nM | > 10000 nM | > 10000 nM | > 10000 nM | 7.07 nM | > 10000 nM | > 10000 nM | 37.6 nM
3 | CN(Cc1cnc2nc(N)nc(N)c2n1)c1ccc(C(=O)N[C@@H](CCC(=O)O)C(=O)O)cc1 [Methotrexate] | 53.9 nM | 93.3 nM | > 10000 nM | > 10000 nM | 99 nM | 30.9 nM | > 10000 nM | 136 nM | > 10000 nM | 267 nM | > 10000 nM | 132 nM | > 10000 nM | 25.7 nM | > 10000 nM | 106 nM | 65.1 nM | > 10000 nM | > 10000 nM | 869 nM
4 | COc1cccc2c1C(=O)c1c(O)c3c(c(O)c1C2=O)C[C@@](O)(C(C)=O)C[C@@H]3O[C@H]1C[C@H](N)[C@H](O)[C@H](C)O1 [Daunorubicin] | 13.1 nM | 51.1 nM | 90.1 nM | 475 nM | 12.2 nM | 14.9 nM | 42.1 nM | 227 nM | 87.8 nM | 153 nM | 201 nM | 384 nM | 285 nM | 22 nM | 218 nM | 110 nM | 9.69 nM | 1030 nM | 339 nM | 29.5 nM

Second part, led by results:

Row | IC50 cell viability [4] | IC50 cell viability [8] | Compound | IC50 cell viability [1] | IC50 cell viability [2] | IC50 cell viability [3] | IC50 cell viability [5] | IC50 cell viability [6] | IC50 cell viability [7] | IC50 cell viability [9] | IC50 cell viability [10] | IC50 cell viability [11] | IC50 cell viability [12] | IC50 cell viability [13] | IC50 cell viability [14] | IC50 cell viability [15] | IC50 cell viability [16] | IC50 cell viability [17] | IC50 cell viability [18] | IC50 cell viability [19] | IC50 cell viability [20]
5 | 287 nM | 551 nM | COc1ccccc1S(=O)(=O)Nc1ccc2c(c1)CN(C)C(=O)N2 [PFI-1] | 2940 nM | 5220 nM | 751 nM | 623 nM | 175 nM | 1580 nM | 3340 nM | > 10000 nM | 2810 nM | 1350 nM | > 10000 nM | 2820 nM | 2190 nM | 2160 nM | 444 nM | 7020 nM | 5980 nM | 804 nM
6 | > 10000 nM | > 10000 nM | CCCOc1ccn2c(C(C)=O)cc(-c3ccccc3S(C)(=O)=O)c2c1 [GSK-2801] | > 10000 nM | > 10000 nM | > 10000 nM | > 10000 nM | > 10000 nM | > 10000 nM | > 10000 nM | > 10000 nM | > 10000 nM | > 10000 nM | > 10000 nM | > 10000 nM | > 10000 nM | > 10000 nM | > 10000 nM | > 10000 nM | > 10000 nM | > 10000 nM
